Laboratory results published in US20070191393A1, “Macrocyclic anilinopyrimidines with substituted sulphoximine as selective inhibitors of cell cycle kinases” (priority 2006, published 2007).

Experiments:
CDK1/CycB = target: T1, CDK1/CycB (Homo sapiens, UniProt P06493); experiment: CDK1/CycB kinase assay; type: biochemical; conditions: 0.5 μM ATP, 22° C., 10 min
T1 construct: GST; purchased ProQinase GmbH, Freiburg; host or cells: baculovirus-infected Sf9 insect cells
Method: Recombinant CDK1- and CycB-GST fusion proteins, purified from baculovirus-infected insect cells (Sf9), were purchased from ProQinase GmbH, Freiburg. The histone IIIS used as kinase substrate can be purchased from Sigma. CDK1/CycB (200 ng/measurement point) was incubated in the presence of various concentrations of test substances (0 μM, and within the range 0.01-100 μM) in assay buffer [50 mM Tris/HCl pH 8.0, 10 mM MgCl2, 0.1 mM Na ortho-vanadate, 1.0 mM dithiothreitol, 0.5 μM ATP, 10 μg/measurement point histone IIIS, 0.2 μCi/measurement point 33P-gamma ATP, 0.05% NP40, 1.25% dimethyl sulphoxide] at 22° C. for 10 min. The reaction was stopped by adding EDTA solution (250 mM, pH 8.0, 15 μl/measurement point).
15 μl of each reaction mixture were loaded onto P30 filter strips (from Wallac), and non-incorporated 33P-ATP was removed by washing the filter strips three times in 0.5% strength phosphoric acid for 10 min each time. After the filter strips had been dried at 70° C. for 1 hour, the filter strips were covered with scintillator strips (MeltiLex™ A, from Wallac) and baked at 90° C. for 1 hour. The amount of incorporated 33P (substrate phosphorylation) was determined by scintillation measurement in a gamma radiation counter (Wallac).

Tie-2 = target: T2, Tie-2 (Homo sapiens, UniProt Q02763); experiment: Tie-2 kinase assay; type: biochemical; conditions: 10 μM ATP, 20 min
T2 construct: made in house; host or cells: Hi5 insect cells
T2 sequence (Q02763 23-1124, species assumed): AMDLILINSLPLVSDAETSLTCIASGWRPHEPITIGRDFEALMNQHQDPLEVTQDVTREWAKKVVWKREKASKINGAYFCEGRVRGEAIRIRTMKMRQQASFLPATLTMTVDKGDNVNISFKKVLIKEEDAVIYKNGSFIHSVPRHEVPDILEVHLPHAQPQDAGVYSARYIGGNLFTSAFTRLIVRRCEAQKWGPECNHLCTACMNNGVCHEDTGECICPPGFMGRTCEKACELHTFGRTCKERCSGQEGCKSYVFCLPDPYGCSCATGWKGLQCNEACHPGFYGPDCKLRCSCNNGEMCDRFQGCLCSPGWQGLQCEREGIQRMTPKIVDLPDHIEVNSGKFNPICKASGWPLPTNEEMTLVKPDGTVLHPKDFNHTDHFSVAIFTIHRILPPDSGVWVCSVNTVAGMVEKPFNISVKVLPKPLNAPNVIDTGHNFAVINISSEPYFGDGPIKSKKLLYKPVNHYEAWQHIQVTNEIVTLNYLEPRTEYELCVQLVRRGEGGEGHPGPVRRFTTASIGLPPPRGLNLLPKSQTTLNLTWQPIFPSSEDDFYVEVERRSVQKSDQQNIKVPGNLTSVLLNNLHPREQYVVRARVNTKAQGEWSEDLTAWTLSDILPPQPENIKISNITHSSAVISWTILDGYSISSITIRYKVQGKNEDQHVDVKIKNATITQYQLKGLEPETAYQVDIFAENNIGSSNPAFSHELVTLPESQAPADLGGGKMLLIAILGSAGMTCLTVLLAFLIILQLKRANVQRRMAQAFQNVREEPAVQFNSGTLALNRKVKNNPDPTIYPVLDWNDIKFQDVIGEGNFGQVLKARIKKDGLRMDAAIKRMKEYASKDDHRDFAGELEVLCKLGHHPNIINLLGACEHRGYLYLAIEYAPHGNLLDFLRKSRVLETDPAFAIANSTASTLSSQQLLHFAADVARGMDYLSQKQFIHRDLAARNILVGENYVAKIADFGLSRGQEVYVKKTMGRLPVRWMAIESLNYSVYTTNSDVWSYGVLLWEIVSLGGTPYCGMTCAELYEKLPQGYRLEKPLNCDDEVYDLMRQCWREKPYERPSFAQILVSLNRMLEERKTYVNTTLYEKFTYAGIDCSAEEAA
Method: Recombinant Tie-2 protein was expressed in Hi5 insect cells and then purified. The kinase substrate used was the biotinylated peptide having the amino acid sequence biotin-EPKDDAYPLYSDFG, which was purchased from Biosynthan. Tie-2 [concentration in the mixture 5 ng/μl] was preincubated in the presence of 100 μM ATP in assay buffer [50 mM HEPES pH 7.0, 0.5 mM MgCl2, 1.0 mM dithiothreitol, 0.01% NP40, 1 tablet/2.5 ml complete protease inhibitor (from Roche)] at 22° C. for 20 min. The enzyme reaction [0.5 ng/μl Tie-2 in the test mixture, test volume 5 μl] then took place in the presence of various concentrations of test substances (0 μM, and 10 measurement points within the range 0.001-20 μM in duplicate) in assay buffer with 10 μM ATP, 1.0 μM substrate peptide biotin-EPKDDAYPLYSDFG, 1.0% dimethyl sulphoxide for 20 min. The reaction was stopped by adding 5 μl of an EDTA/detection solution [50 mM HEPES pH 7.5, 89 mM EDTA, 0.28% BSA, 0.2 μM streptavidin-XLent (from CisBio), 2 nM PT66-Eu (from PerkinElmer)]. The fluorescence emission at 620 nm and 665 nm after excitation with light of the wavelength 350 nm was measured in a Rubystar HTRF instrument from BMG Labsystems.
The measured data (ratio of emission 665 divided by emission 620 multiplied by 10 000) were normalized to 0% inhibition (enzyme reaction without inhibitor) and 100% inhibition (all assay components apart from enzyme). The IC50 values were determined by means of a 4-parameter fit using the company's own software.

T1 sequence (P06493 whole entry): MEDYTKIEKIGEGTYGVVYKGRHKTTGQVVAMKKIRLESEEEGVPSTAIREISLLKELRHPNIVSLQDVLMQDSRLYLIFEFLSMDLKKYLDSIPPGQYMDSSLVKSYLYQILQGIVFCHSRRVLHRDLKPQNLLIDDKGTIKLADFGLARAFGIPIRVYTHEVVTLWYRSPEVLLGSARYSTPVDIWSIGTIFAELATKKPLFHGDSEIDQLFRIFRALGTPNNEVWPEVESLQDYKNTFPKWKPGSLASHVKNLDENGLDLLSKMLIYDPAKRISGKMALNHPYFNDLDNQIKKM
T1 sequence (P14635 whole entry partner): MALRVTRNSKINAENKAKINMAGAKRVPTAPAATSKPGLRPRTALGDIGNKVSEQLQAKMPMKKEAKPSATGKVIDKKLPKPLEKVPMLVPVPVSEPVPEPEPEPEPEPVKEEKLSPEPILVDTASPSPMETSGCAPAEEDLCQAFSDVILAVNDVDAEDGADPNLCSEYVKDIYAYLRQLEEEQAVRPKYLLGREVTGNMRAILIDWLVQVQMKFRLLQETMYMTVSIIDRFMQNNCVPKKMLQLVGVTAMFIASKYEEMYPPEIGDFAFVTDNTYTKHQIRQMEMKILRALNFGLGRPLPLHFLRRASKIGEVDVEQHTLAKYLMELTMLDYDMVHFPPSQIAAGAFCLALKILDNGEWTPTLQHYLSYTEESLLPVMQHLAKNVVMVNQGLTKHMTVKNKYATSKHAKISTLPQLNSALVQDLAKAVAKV

Structure (SMILES) | IC50 (CDK1/CycB) [nM] | IC50 (Tie-2) [nM]
CCOC(=O)N=S(C)(=O)c1ccc2cc1NCCCCNc1nc(ncc1Br)N2 (single isomer, unassigned) [Example 3] | 210 | 
CCOC(=O)N=S(C)(=O)c1ccc2cc1NCCCCNc1nc(ncc1Br)N2 (racemic) [Example 1, (RS)—S-[1^5-Bromo-2,4,9-triaza-1(2,4)-pyrimidina-3(1,3)-benzenacyclononaphan-3^4-yl]-N-(ethoxycarbonyl)-S-methylsulphoximide] | 173 | 2920
C[Si](C)(C)CCS(=O)(=O)N=S(C)(=O)c1ccc2cc1OCCCCNc1nc(ncc1Br)N2 (racemic) [Example 9, (RS)—S-[1^5-Bromo-4-oxa-2,9-diaza-1(2,4)-pyrimidina-3(1,3)-benzenacyclononaphan-3^4-yl]-S-methyl-N-[2-(trimethylsilyl)ethylsulphonyl]sulphoximide] | > 1000 | > 10000
CCCS(=O)(=O)N=S(C)(=O)c1ccc2cc1NCCCCNc1nc(ncc1Br)N2 (racemic) [Example 7, (RS)—S-[1^5-Bromo-2,4,9-triaza-1(2,4)-pyrimidina-3(1,3)-benzenacyclononaphan-3^4-yl]-S-methyl-N-(propylsulphonyl)sulphoximide] | 452 | 1700
C[Si](C)(C)CCS(=O)(=O)N=S(C)(=O)c1ccc2cc1NCCCCNc1nc(ncc1Br)N2 (racemic) [Example 5, (RS)—S-[1^5-Bromo-2,4,9-triaza-1(2,4)-pyrimidina-3(1,3)-benzenacyclononaphan-3^4-yl]-S-methyl-N-[2-(trimethylsilyl)ethylsulphonyl]sulphoximide] | > 1000 | 
CCCOC(=O)N=S(C)(=O)c1ccc2cc1OCCCCNc1nc(ncc1Br)N2 (racemic) [Example 8, (RS)—S-[1^5-Bromo-4-oxa-2,9-diaza-1(2,4)-pyrimidina-3(1,3)-benzenacyclononaphan-3^4-yl]-S-methyl-N-(propoxycarbonyl)sulphoximide] | 438 | 17100

The next compounds have a lower IC50 (CDK1/CycB) than those just listed; values first:

IC50 (CDK1/CycB) [nM] | IC50 (Tie-2) [nM] | Structure (SMILES)
104 |  | CCOC(=O)N=S(C)(=O)c1ccc2cc1NCCCCNc1nc(ncc1Br)N2 (single isomer, unassigned) [Example 2]
118 |  | CCOC(=O)N=S(C)(=O)c1ccc2cc1NCCCCNc1nc(ncc1I)N2 (racemic) [Example 4, (RS)—N-(Ethoxycarbonyl)-S-[1^5-iodo-2,4,9-triaza-1(2,4)-pyrimidina-3(1,3)-benzenacyclononaphan-3^4-yl]-S-methylsulphoximide]
70 | 1410 | CCNC(=O)N=S(C)(=O)c1ccc2cc1NCCCCNc1nc(ncc1Br)N2 (racemic) [Example 6, (RS)—S-[1^5-Bromo-2,4,9-triaza-1(2,4)-pyrimidina-3(1,3)-benzenacyclononaphan-3^4-yl]-N-(ethylcarbamoyl)-S-methylsulphoximide]
